“Also recorded” adds a separate entry of the source. Read-outs that look alike come from different tables or passages of the source.
How the values were obtained:
[1] = Toxicity of DMAMCL, oral once a day for 21 days; type: in vivo, Wistar rats; set-up: Cr: unit not given here; conditions: for ALB / ALP / ALT / AST / CHOL / CK / Cr / GLU / TG / TP / Urea: serum
Experimental: Wistar rats (150–170 g) were divided into the following 3 groups (6 rats /group): 1) vehicle control, 2) DMAMCL at 200 mg/kg, and 3) DMAMCL at 300 mg/kg. DMAMCL was administered orally once a day for 21 days. Rats were weighed on days 0, 3, 7, 11, 14, 17, and 21. Total food intake was measured as the weight of food consumed during a 24-h period on days 3, 8, 15, and 22. On the 23rd day, rats were anesthetized and sacrificed via CO2 asphyxiation. Peripheral blood was collected for hematological and serum biochemical analyses using a blood cell counter (Medonic M16, Boule medical AB, Sweden) and a Hitachi 7180 Automatic Analyzer (Japan). Tissues samples from the liver, spleen, lung, kidney, and brain were collected and embedded in paraffin for H&E staining.

[2] = Biodistribution of DMAMCL in rats after a single oral dose (UPLC-MS/MS); type: in vivo, Wistar rats; set-up: Mean concentration in brain: unit not given here; conditions: single oral dose 100 mg/kg
Experimental: All rats had free access to food and water. Before drug administration, rats were fasted for 12 h and water was freely available.
Aqueous DMAMCL solutions were administered orally (100 mg/kg) (n = 6 rats per group). Blood and tissue samples from rats were collected at the setting time and analyzed on an ultraperformance liquid chromatography-mass spectrometry (UPLC-MS/MS) system (Waters/Micromass, Milford, MA) using noncompartmental analyses. All the biological specimens were detected at once or stored at -80°C for detection.

[3] = system: Bcl-2 and Bax in U-87MG cells; assay: Western blotting of Bcl-2 and Bax, U-87MG cells; type: cell-based, human; conditions: 60 μM and 120μM, 24 hr
Experimental: The cellular proteins were extracted from 10^7 cultured cells after drug treatments using RIPA lysis buffer (Promega, USA). Western blotting analysis was performed to determine cellular responses targeting apoptosis-related proteins including Bcl-2 and Bax. Briefly, C6 and U-87MG cells were treated with different doses of DMAMCL for 24 hr at 37°C. Then cells were washed twice with cold phosphate buffered saline (PBS) and lysed in RIPA buffer containing 1mmol/l PMSF (Pheylmethylsulfonyl fluoride, Sigma, USA) on ice for 30 min. The total proteins of cells were obtained by centrifugation at 12000 rpm for 15 min. Next, the lysate proteins were resolved by SDS-PAGE and transferred to the Immobilon-P membranes (Millipore, Billerica, MA, USA). The membranes were blocked by 5% nonfat milk in Tris-buffered saline with 0.1% Tween 20 (TBST) and immunoblotted with the antibodies against β-actin, Bcl-2 and Bax (Cellsignaling Technology, USA) at 4°C overnight. Then membranes were incubated with HRP-conjugated secondary antibody for 1.5 hr at room temperature. The targeting antibodies were stained with enhanced chemiluminescent reagents (Millipore, Billerica, MA, USA) and visualized by ChemiScope 3600 Mini systerm (Clinx Science Instruments, China).

C6 cells = assay: Cell proliferation MTT assay, C6; type: cell-based; conditions: Rattus norvegicus, 72 h
Experimental: C6 and U-87MG cell lines were obtained from the American Type Culture Collection (ATCC) and cultured in our laboratory. Rat C6 glioma cells were cultured in F12K nutrient medium (Gibco, Grand Island, […]) supplemented with 15% horse serum (Auckland, NZ), 2.5% fetal bovine serum (FBS), 100 U/mL penicillin, and […] streptomycin (Gibco, Paisley, Scotland, UK). Human U-87MG cells were cultured in minimum essential medium (MEM) supplemented with 10% FBS, 1% nonessential amino acids, 100 U/mL penicillin, and […] streptomycin. Cells were cultured under a humidified atmosphere containing 5% CO2 at 37°C, and medium was changed every 1 to 2 days.
Tumor cells were seeded in 96-well plates at a density of 3500 cells/well. After 24 h in culture, cells were exposed to different concentrations of DMAMCL or medium alone (control) for 72 h. Cell viability was determined by MTT assays. Briefly, MTT regent (0.5 mg/mL) was added to wells, and cells were incubated for 4 h at 37°C. After removing the supernatant, 200 μL of dimethyl sulfoxide (DMSO) (Fluka, Switzerland) was added to dissolve formazan crystals. The absorbance at 570 nm was measured by a microplate reader (Thermo Labsystems, Helsinki, Finland). Control absorbance was taken as 100%. The absorbance of DMAMCL-treated cells was taken as percentage survival. […]

[4] = 200 mg/kg orally once a day for 21 days
[5] = 300 mg/kg orally once a day for 21 days

Compound: CC1=C2CC[C@@](C)(O)[C@@H]2[C@H]2OC(=O)[C@@H](CN(C)C)[C@@H]2CC1 [DMAMCL, dimethylaminomicheliolide]
- GRAN% [1, 4]: 26.5 ± 3.3%
- HCT% [1, 4]: 35.6 ± 1.2%
- HGB [1, 4]: 145 ± 12.3 g/L
- LYM% [1, 4]: 71.3 ± 6.3%
- MCV [1, 4]: 55.5 ± 1.4 fL
- MONO% [1, 4]: 2.1 ± 0.3%
- PLT [1, 4]: 1195 ± 87 ×10^9/L
- RBC [1, 4]: 6.73±1.3 ×10^12/L
- RDW% [1, 4]: 18.5 ± 1.1%
- WBC [1, 4]: 12.5 ± 2.5 ×10^9/L
- GRAN% [1, 5]: 26.3 ± 4.1%
- HCT% [1, 5]: 37.7 ± 0.8%
- HGB [1, 5]: 140 ± 11.1 g/L
- LYM% [1, 5]: 69.9 ± 6.0%
- MCV [1, 5]: 53.5 ± 2.3 fL
- MONO% [1, 5]: 2.9 ± 0.9%
- PLT [1, 5]: 1132 ± 82 ×10^9/L
- RBC [1, 5]: 6.37 ± 1.01 ×10^12/L
- RDW% [1, 5]: 17.8 ± 0.7%
- WBC [1, 5]: 11.9 ± 1.3 ×10^9/L
- Toxicity (body weight, daily food intake, histopathology, hematology, serum biochemistry) ([1]; 200 or 300 mg/kg orally once a day for 21 days): did not result in toxicity; also recorded: No significant changes were observed; also recorded: did not lead to toxicity
- ALB [1, 4]: 32.5 ± 3.01 g/L
- ALP [1, 4]: 190 ± 19 U/L
- ALT [1, 4]: 51 ± 10 U/L
- AST [1, 4]: 98 ± 12 U/L
- CHOL [1, 4]: 1.39 ± 0.67 mM
- CK [1, 4]: 423 ± 35 U/L
- Cr [1, 4]: 79 ± 23
- GLU [1, 4]: 5.22 ± 2.01 mM
- TG [1, 4]: 0.81 ± 0.23 mM
- TP [1, 4]: 61.0 ± 4.6 g/L
- Urea [1, 4]: 6.45 ± 2.3 mM
- ALB [1, 5]: 34 ± 1.98 g/L
- ALP [1, 5]: 179 ± 30 U/L
- ALT [1, 5]: 49 ± 11 U/L
- AST [1, 5]: 111 ± 15 U/L
- CHOL [1, 5]: 1.42 ± 0.78 mM
- CK [1, 5]: 523 ± 101 U/L
- Cr [1, 5]: 80 ± 17
- GLU [1, 5]: 5.23 ± 1.34 mM
- TG [1, 5]: 0.69 ± 0.33 mM
- TP [1, 5]: 58.3 ± 3.3 g/L
- Urea [1, 5]: 7.33 ± 1.02 mM
- Kp at 0.083 h ([2]; Wistar, rat, brain, rats, 0.083h, read-out: C brain / C plasma): 1.45
- Kp at 0.5 h ([2]; Wistar, rat, brain, rats, 0.5h, read-out: C brain / C plasma): 1.84
- Kp at 3 h ([2]; Wistar, rat, brain, rats, 3h, read-out: C brain / C plasma): 1.91
- concentration at 3 h ([2]; Wistar, rat, brain, read-out: Concentration in rat brain): 4.91 ± 0.869 µg/mL
- Tmax ([2]; Wistar, rat, brain, read-out: Time of peak concentration in rat brain): 30 min
- concentration at 3 h ([2]; Wistar, rat, plasma, read-out: Concentration in plasma): 2.57 ± 0.968 µg/mL
- Concentration in brain compared with plasma ([2]; rats): higher in the brain than in plasma
- Concentration in tissues compared with plasma ([2]; rats): dramatically higher in almost all tissues than in plasma
- Mean concentration in brain ([2]; rats, 0.083h): 6360
- Mean concentration in plasma ([2]; rats, 0.083h): 4373 µg/mL
- Mean concentration in brain ([2]; rats, 0.5h): 18970
- Mean concentration in plasma ([2]; rats, 0.5h): 10310 µg/mL
- Mean concentration in brain ([2]; rats, 3h): 4913
- Mean concentration in plasma ([2]; rats, 3h): 2567 µg/mL
- Peak concentration in rat brain ([2]; 0.5 hours after administration): 18970 ± 9603 ng/mL
- Bax expression (Western blot) [3]: up-regulated Bax expression
- Bcl-2 expression (Western blot) [3]: down-regulated Bcl-2 expression
- IC50 (C6 cells; read-out: IC50): 27.2 ± 1.89 µM
- IC50 (C6 cells; read-out: x0 (midpoint of logistic fit, Fig 3A) (converted)): 27.2 ± 1.89 µM

Reference: article PMC4320118, “Micheliolide Derivative DMAMCL Inhibits Glioma Cell Growth In Vitro and In Vivo” (PLoS ONE, 2015)
